Source: patent publication US20090124644A1, “HIV INHIBITING 2-(4-CYANOPHENYLAMINO) PYRIMIDINE DERIVATIVES” (priority 2005, published 2009)

The compounds below were run on Strain A, mutation Y181C in HIV reverse transcriptase (assay: Antiviral spectrum, cellular assay, strain A). Settings: Human immunodeficiency virus 1, read-out: pEC50 A (converted).
Format: cell-based
Experimental: (§1) Because of the increasing emergence of drug resistant HIV strains, the present compounds were tested for their potency against clinically isolated HIV strains harboring several mutations. These mutations are associated with resistance to reverse transcriptase inhibitors and result in viruses that show various degrees of phenotypic cross-resistance to the currently commercially available drugs such as for instance AZT and delavirdine.
(§2) The antiviral activity of the compound of the present invention has been evaluated in the presence of wild type HIV and HIV mutants bearing mutations at the reverse transcriptase gene. The activity of the compounds is evaluated using a cellular assay and the residual activity is expressed in pEC50 values. The columns IIIB and A-G in the table list the pEC50 values against various strains IIIB, A-G.
(§3) Strain IIIB is wild type HIV-LAI strain Strain A contains mutation Y181C in HIV reverse transcriptase, Strain B contains mutation V106A in HIV reverse transcriptase, Strain C contains mutation L100I in HIV reverse transcriptase, Strain D contains mutation Y188L in HIV reverse transcriptase, Strain E contains mutations L100I and K103N in HIV reverse transcriptase, Strain F contains mutations K103N and Y181C in HIV reverse transcriptase.

Compound	EC50
Cc1cc(C#N)cc(C)c1Nc1nc(Nc2ccc(C#N)cc2)nc(N)c1Br [Compound 1]	3.98 nM
N#Cc1ccc(Nc2nc(N)c(Br)c(Sc3c(C#N)cc(C#N)cc3C#N)n2)cc1 [Compound 2]	15.8 nM
Cc1cc(C#N)cc(C)c1[S+]([O-])c1nc(Nc2ccc(C#N)cc2)nc(N)c1Br (stereo not drawn) [Compound 3]	79.4 nM

These compounds were tested on Strain D, mutation Y188L in HIV reverse transcriptase (assay: Antiviral spectrum, cellular assay, strain D). Settings: Human immunodeficiency virus 1, read-out: pEC50 D (converted).
Format: cell-based
Experimental: as §1, §2, §3

Compound	EC50
Cc1cc(C#N)cc(C)c1Nc1nc(Nc2ccc(C#N)cc2)nc(N)c1Br [Compound 1]	0.794 nM
N#Cc1ccc(Nc2nc(N)c(Br)c(Sc3c(C#N)cc(C#N)cc3C#N)n2)cc1 [Compound 2]	3.98 nM
Cc1cc(C#N)cc(C)c1[S+]([O-])c1nc(Nc2ccc(C#N)cc2)nc(N)c1Br (stereo not drawn) [Compound 3]	39.8 nM

These compounds were tested on Strain B, mutation V106A in HIV reverse transcriptase (assay: Antiviral spectrum, cellular assay, strain B). Settings: Human immunodeficiency virus 1, read-out: pEC50 B (converted).
Format: cell-based
Experimental: as §1, §2, §3

Compound	EC50
Cc1cc(C#N)cc(C)c1Nc1nc(Nc2ccc(C#N)cc2)nc(N)c1Br [Compound 1]	0.398 nM
N#Cc1ccc(Nc2nc(N)c(Br)c(Sc3c(C#N)cc(C#N)cc3C#N)n2)cc1 [Compound 2]	3.16 nM
Cc1cc(C#N)cc(C)c1[S+]([O-])c1nc(Nc2ccc(C#N)cc2)nc(N)c1Br (stereo not drawn) [Compound 3]	7.94 nM

These compounds were tested on Strain IIIB, wild type HIV-LAI strain (assay: Antiviral spectrum, cellular assay, strain IIIB). Settings: Human immunodeficiency virus 1.
Format: cell-based
Experimental: as §1, §2, §3

Compound	EC50
Cc1cc(C#N)cc(C)c1Nc1nc(Nc2ccc(C#N)cc2)nc(N)c1Br [Compound 1]	0.631 nM
N#Cc1ccc(Nc2nc(N)c(Br)c(Sc3c(C#N)cc(C#N)cc3C#N)n2)cc1 [Compound 2]	3.16 nM
Cc1cc(C#N)cc(C)c1[S+]([O-])c1nc(Nc2ccc(C#N)cc2)nc(N)c1Br (stereo not drawn) [Compound 3]	5.01 nM

The compounds below were run on Strain E, mutations L100I and K103N in HIV reverse transcriptase (assay: Antiviral spectrum, cellular assay, strain E). Settings: Human immunodeficiency virus 1, read-out: pEC50 E (converted).
Format: cell-based
Experimental: as §1, §2, §3

Compound	EC50
Cc1cc(C#N)cc(C)c1Nc1nc(Nc2ccc(C#N)cc2)nc(N)c1Br [Compound 1]	3.98 nM
N#Cc1ccc(Nc2nc(N)c(Br)c(Sc3c(C#N)cc(C#N)cc3C#N)n2)cc1 [Compound 2]	7.94 nM
Cc1cc(C#N)cc(C)c1[S+]([O-])c1nc(Nc2ccc(C#N)cc2)nc(N)c1Br (stereo not drawn) [Compound 3]	6310 nM

Each compound was assayed on Strain C, mutation L100I in HIV reverse transcriptase (assay: Antiviral spectrum, cellular assay, strain C). Settings: Human immunodeficiency virus 1, read-out: pEC50 C (converted).
Format: cell-based
Experimental: as §1, §2, §3

Compound	EC50
Cc1cc(C#N)cc(C)c1Nc1nc(Nc2ccc(C#N)cc2)nc(N)c1Br [Compound 1]	0.794 nM
N#Cc1ccc(Nc2nc(N)c(Br)c(Sc3c(C#N)cc(C#N)cc3C#N)n2)cc1 [Compound 2]	20 nM
Cc1cc(C#N)cc(C)c1[S+]([O-])c1nc(Nc2ccc(C#N)cc2)nc(N)c1Br (stereo not drawn) [Compound 3]	1580 nM

Each compound was assayed on Strain F, mutations K103N and Y181C in HIV reverse transcriptase (assay: Antiviral spectrum, cellular assay, strain F). Settings: Human immunodeficiency virus 1, read-out: pEC50 F (converted).
Format: cell-based
Experimental: as §1, §2, §3

Compound	EC50
Cc1cc(C#N)cc(C)c1Nc1nc(Nc2ccc(C#N)cc2)nc(N)c1Br [Compound 1]	3.98 nM
N#Cc1ccc(Nc2nc(N)c(Br)c(Sc3c(C#N)cc(C#N)cc3C#N)n2)cc1 [Compound 2]	20 nM
Cc1cc(C#N)cc(C)c1[S+]([O-])c1nc(Nc2ccc(C#N)cc2)nc(N)c1Br (stereo not drawn) [Compound 3]	251 nM
